Values quoted from earlier work as cited in patent US6855805B2 (priority 1999, dated 2005).

system: neuromuscular block; conditions: dose mg/kg: Sux 1.0, Org 9847 1.5, Rocuronium 0.6, Mivacurium 0.2, Vecuronium 0.1, Cisatracurium 0.1

Point of comparison: C=CC[N+]1([C@H]2C[C@H]3[C@@H]4CC[C@H]5C[C@H](O)[C@@H](N6CCOCC6)C[C@]5(C)[C@H]4CC[C@]3(C)[C@H]2OC(C)=O)CCCC1 [Rocuronium], “Onset Time” value 80 s. Against it:
- COc1ccc(C[C@@H]2c3cc(OC)c(OC)cc3CC[N@+]2(C)CCC(=O)OCCCCCOC(=O)CC[N@@+]2(C)CCc3cc(OC)c(OC)cc3[C@H]2Cc2ccc(OC)c(OC)c2)cc1OC [Cisatracurium] — higher, 120 to 180 s
- COc1cc2c(cc1OC)[C@@H](Cc1cc(OC)c(OC)c(OC)c1)[N+](C)(CCCOC(=O)CC/C=C/CCC(=O)OCCC[N+]1(C)CCc3cc(OC)c(OC)cc3[C@H]1Cc1cc(OC)c(OC)c(OC)c1)CC2 (stereo partly drawn) [Mivacurium] — higher, 150 s
- C[N+](C)(C)CCOC(=O)CCC(=O)OCC[N+](C)(C)C [Sux, succinylcholine chloride] — lower, 60 s
- CC(=O)O[C@H]1C[C@@H]2CC[C@@H]3[C@H](CC[C@@]4(C)[C@H]3C[C@H]([N+]3(C)CCCCC3)[C@@H]4OC(C)=O)[C@@]2(C)C[C@@H]1N1CCCCC1 [Vecuronium] — higher, 120 to 180 s

Point of comparison: CC(=O)O[C@H]1C[C@@H]2CC[C@@H]3[C@H](CC[C@@]4(C)[C@H]3C[C@H]([N+]3(C)CCCCC3)[C@@H]4OC(C)=O)[C@@]2(C)C[C@@H]1N1CCCCC1 [Vecuronium], “Recovery 25%” value 40 min. Against it:
- COc1ccc(C[C@@H]2c3cc(OC)c(OC)cc3CC[N@+]2(C)CCC(=O)OCCCCCOC(=O)CC[N@@+]2(C)CCc3cc(OC)c(OC)cc3[C@H]2Cc2ccc(OC)c(OC)c2)cc1OC [Cisatracurium] — within 1.5-fold, 45 min
- COc1cc2c(cc1OC)[C@@H](Cc1cc(OC)c(OC)c(OC)c1)[N+](C)(CCCOC(=O)CC/C=C/CCC(=O)OCCC[N+]1(C)CCc3cc(OC)c(OC)cc3[C@H]1Cc1cc(OC)c(OC)c(OC)c1)CC2 (stereo partly drawn) [Mivacurium] — 2-fold lower, 20 min
- C=CC[N+]1([C@H]2C[C@H]3[C@@H]4CC[C@H]5C[C@H](O)[C@@H](N6CCOCC6)C[C@]5(C)[C@H]4CC[C@]3(C)[C@H]2OC(C)=O)CCCC1 [Rocuronium] — the same, 40 min
- C[N+](C)(C)CCOC(=O)CCC(=O)OCC[N+](C)(C)C [Sux, succinylcholine chloride] — lower, 5 to 7 min

Point of comparison: C=CC[N+]1([C@H]2C[C@H]3[C@@H]4CC[C@H]5C[C@H](O)[C@@H](N6CCOCC6)C[C@]5(C)[C@H]4CC[C@]3(C)[C@H]2OC(C)=O)CCCC1 [Rocuronium], “Recovery 75%” value 60 min. Against it:
- COc1ccc(C[C@@H]2c3cc(OC)c(OC)cc3CC[N@+]2(C)CCC(=O)OCCCCCOC(=O)CC[N@@+]2(C)CCc3cc(OC)c(OC)cc3[C@H]2Cc2ccc(OC)c(OC)c2)cc1OC [Cisatracurium] — not separable, 60 to 70 min
- COc1cc2c(cc1OC)[C@@H](Cc1cc(OC)c(OC)c(OC)c1)[N+](C)(CCCOC(=O)CC/C=C/CCC(=O)OCCC[N+]1(C)CCc3cc(OC)c(OC)cc3[C@H]1Cc1cc(OC)c(OC)c(OC)c1)CC2 (stereo partly drawn) [Mivacurium] — 2.2-fold lower, 27 min
- C[N+](C)(C)CCOC(=O)CCC(=O)OCC[N+](C)(C)C [Sux, succinylcholine chloride] — 6-fold lower, 10 min
- CC(=O)O[C@H]1C[C@@H]2CC[C@@H]3[C@H](CC[C@@]4(C)[C@H]3C[C@H]([N+]3(C)CCCCC3)[C@@H]4OC(C)=O)[C@@]2(C)C[C@@H]1N1CCCCC1 [Vecuronium] — the same, 60 min
